Data taken from US20100298141A1, “SUBSTITUTED PYRIDINE N-OXIDE HERBICIDES” (E. I. DU PONT DE NEMOURS AND COMPANY, priority 2007, published 2010).

Legend:
morningglory [1] = experiment: Test A pre-/postemergence greenhouse test; type: in vivo, Ipomoea spp.; conditions: for Morningglory plant response rating: 0 to 100 scale; for Plant response rating, Morningglory: 0 to 100 scale where 0 is no effect and 100 is complete control
Method in brief: (§1)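 Seeds sown in a loam soil–sand blend got a preemergence directed soil spray of compound in a non-phytotoxic solvent mixture containing surfactant. Postemergence sprays of the same formulation went at the same time onto plants 2–10 cm tall at the one- to two-leaf stage. Injury was scored visually against untreated controls after about ten days in the greenhouse.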

redroot pigweed = experiment: Test A pre-/postemergence greenhouse test; type: in vivo, Amaranthus retroflexus; conditions: for Pigweed plant response rating: 0 to 100 scale; for Plant response rating, Pigweed: 0 to 100 scale where 0 is no effect and 100 is complete control
Method in brief: as §1

corn [2] = experiment: Test A pre-/postemergence greenhouse test; type: in vivo, Zea mays; conditions: for Corn plant response rating: 0 to 100 scale; for Plant response rating, Corn: 0 to 100 scale where 0 is no effect and 100 is complete control
Method in brief: as §1

Italian ryegrass = experiment: Test C pre-/postemergence test; type: in vivo, Lolium multiflorum
Method in brief: (§2)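 Test chemicals were formulated with surfactant in a non-phytotoxic solvent and sprayed both on freshly planted seeds (preemergence) and on 1- to 4-leaf plants of 2–18 cm (postemergence). Flooded-paddy pots received compound directly into 3 cm of standing water, maintained for the test.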

wheat = experiment: Test C pre-/postemergence test; type: in vivo, Triticum aestivum
Method in brief: as §2

wild oat = experiment: Test C pre-/postemergence test; type: in vivo, Avena fatua
Method in brief: as §2

bermudagrass = experiment: Test C pre-/postemergence test; type: in vivo, Cynodon dactylon; conditions: for Plant response rating (0 to 100), Bermudagrass: 250 g ai/ha
Method in brief: as §2

cocklebur = experiment: Test C pre-/postemergence test; type: in vivo, Xanthium strumarium; conditions: for Plant response rating (0 to 100), Cocklebur: 250 g ai/ha
Method in brief: as §2

corn [3] = experiment: Test C pre-/postemergence test; type: in vivo, Zea mays; conditions: for Plant response rating (0 to 100), Corn: 250 g ai/ha
Method in brief: as §2

giant foxtail = experiment: Test C pre-/postemergence test; type: in vivo, Setaria faberii; conditions: for Plant response rating (0 to 100), Foxtail, Giant: 250 g ai/ha
Method in brief: as §2

johnsongrass = experiment: Test C pre-/postemergence test; type: in vivo, Sorghum halepense; conditions: for Plant response rating (0 to 100), Johnsongrass: 250 g ai/ha
Method in brief: as §2

kochia = experiment: Test C pre-/postemergence test; type: in vivo, Kochia scoparia; conditions: Preemergence
Method in brief: as §2

eastern black nightshade = experiment: Test C pre-/postemergence test; type: in vivo, Solanum ptycanthum
Excerpt: Seeds of plant species selected from blackgrass (Alopecurus myosuroides), downy brome (Bromus tectorum), green foxtail (Setaria viridis), Italian ryegrass (Lolium multiflorum), wheat (Triticum aestivum), wild oat (Avena fatua), catchweed bedstraw (Galium aparine), Russian thistle (Salsola kali), […] (Cynodon dactylon), Surinam grass (Brachiaria decumbens), cocklebur (Xanthium strumarium), corn (Zea mays), crabgrass (Digitaria sanguinalis), woolly cupgrass (Eriochloa villosa), giant foxtail (Setaria faberii), Goosegrass (Eleusin indica), johnsongrass (Sorghum halepense), kochia (Kochia scoparia), lambsquarters (Chenopodium album), morningglory (Ipomoea coccinea), eastern black nightshade (Solanum ptycanthum), yellow nutsedge (Cyperus esculentus), pigweed (Amaranthus retroflexus), common ragweed (Ambrosia elation), soybean (Glycine max), common (oilseed) sunflower (Helianthus annuus), and velvetleaf (Abutilon theophrasti) were planted and treated preemergence with test chemicals formulated in a non-phytotoxic solvent mixture which included a surfactant. At the same time, plants selected from these crop and weed species and also winter barley (Hordeum vulgare), canarygrass (Phalaris minor), and chickweed (Stellaria media) were treated with postemergence applications of some of the test chemicals formulated in the same manner. Plants ranged in height from 2 to 18 cm (1- to 4-leaf stage) for postemergence treatments. […] At time of treatment, test pots were flooded to 3 cm above the soil surface, treated by application of test compounds directly to the paddy water, and then maintained at that water depth for the duration of the test. […] A dash (-) response means no test result.

yellow nutsedge = experiment: Test C pre-/postemergence test; type: in vivo, Cyperus esculentus
Method in brief: as §2

[4] = system: common (oilseed) sunflower; experiment: Test C pre-/postemergence test; type: in vivo, Helianthus annuus
Method in brief: as §2

rice = experiment: Test C flooded paddy test; type: in vivo, Oryza sativa; conditions: Flood
Method in brief: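 Greenhouse pots flooded to 3 cm above soil at time of treatment received compound via the water, which stayed at that level.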

morningglory [5] = experiment: Test C pre-/postemergence test; type: in vivo, Ipomoea coccinea
Method in brief: as §2

[6] = Postemergence, 125 g ai/ha, 0 is no effect, 100 is complete control
[7] = Postemergence, 500 g ai/ha, 0 is no effect, 100 is complete control
[8] = Preemergence, 125 g ai/ha, 0 no effect, 100 complete control
[9] = 62 g ai/ha, Preemergence, scale 0 to 100
[10] = Preemergence, 31 g ai/ha, scale 0 to 100 (0 no effect, 100 complete control)
[11] = preemergence, 125 g ai/ha, scale 0 (no effect) to 100 (complete control)
[12] = 31 g ai/ha, scale 0 to 100 (0 no effect, 100 complete control)
[13] = 62 g ai/ha, scale 0 to 100, 0 no effect, 100 complete control, 13 to 15 days
[14] = 125 g ai/ha, scale 0 to 100, 0 no effect, 100 complete control, 13 to 15 days
[15] = 31 g ai/ha, Preemergence, scale 0 to 100
[16] = 62 g ai/ha, preemergence, scale 0 (no effect) to 100 (complete control)

## Cn1nc(C(F)(F)F)c(C[S+]([O-])c2cc(C(F)(F)F)cc[n+]2[O-])c1Cl (racemic) [Compound 34]
Morningglory [1]; [6]
  Morningglory plant response rating: 0
Morningglory [1]; [7]
  Morningglory plant response rating: 30
Morningglory [1]; [8]
  Morningglory plant response rating: 50
Morningglory [1]; Preemergence, 500 g ai/ha
  Plant response rating, Morningglory: 80
Redroot pigweed; [6]
  Pigweed plant response rating: 60
Redroot pigweed; [7]
  Pigweed plant response rating: 70
Redroot pigweed; [8]
  Pigweed plant response rating: 100
Redroot pigweed; Preemergence, 500 g ai/ha
  Plant response rating, Pigweed: 100
Corn [2]; [6]
  Corn plant response rating: 0
Corn [2]; [7]
  Corn plant response rating: 20
Corn [2]; [8]
  Corn plant response rating: 0
Corn [2]; Preemergence, 500 g ai/ha
  Plant response rating, Corn: 0
Italian ryegrass; [9]
  Ryegrass, Italian plant response rating: 0
Italian ryegrass; [10]
  Plant response rating, Ryegrass, Italian: 0
wheat; [9]
  Wheat plant response rating: 10
wheat; [10]
  Plant response rating, Wheat: 0
Wild oat; [9]
  Oat, Wild plant response rating: 40
Wild oat; [10]
  Plant response rating, Oat, Wild: 0
bermudagrass; 62 g ai/ha, Preemergence, scale 0 to 100 (0 no effect, 100 complete control)
  Bermudagrass plant response rating: 100
bermudagrass; [10]
  Plant response rating, Bermudagrass: 75
bermudagrass; Preemergence
  Plant response rating (0 to 100), Bermudagrass: 100
bermudagrass; [11]
  Bermudagrass plant response rating: 100
cocklebur; [9]
  Cocklebur plant response rating: 0
cocklebur; [10]
  Plant response rating, Cocklebur: 0
cocklebur; Preemergence
  Plant response rating (0 to 100), Cocklebur: 30
cocklebur; [11]
  Cocklebur plant response rating: 0
Corn [3]; [9]
  Corn plant response rating: 0
Corn [3]; [10]
  Plant response rating, Corn: 0
Corn [3]; Preemergence
  Plant response rating (0 to 100), Corn: 20
Corn [3]; [11]
  Corn plant response rating: 5
Giant foxtail; [9]
  Foxtail, Giant plant response rating: 20
Giant foxtail; [10]
  Plant response rating, Foxtail, Giant: 20
Giant foxtail; Preemergence
  Plant response rating (0 to 100), Foxtail, Giant: 50
johnsongrass; [9]
  Johnsongrass plant response rating: 85
johnsongrass; [10]
  Plant response rating, Johnsongrass: 85
johnsongrass; Preemergence
  Plant response rating (0 to 100), Johnsongrass: 100
kochia; 62 g ai/ha, scale 0 to 100
  Kochia plant response rating: 0
kochia; [12]
  Plant response rating, Kochia: 0
Eastern black nightshade; [9]
  Nightshade plant response rating: 100
Eastern black nightshade; [10]
  Plant response rating, Nightshade: 85
Yellow nutsedge; [9]
  Nutsedge, Yellow plant response rating: 70
Yellow nutsedge; [10]
  Plant response rating, Nutsedge, Yellow: 70
[4]; [9]
  Sunflower plant response rating: 0
[4]; [10]
  Plant response rating, Sunflower: 0
rice; [12]
  Plant response rating, Rice: 0
rice; [13]
  Plant response rating, Rice: 0
rice; [14]
  Plant response rating, Rice: 0
rice; 250 g ai/ha, scale 0 to 100, 0 no effect, 100 complete control, 13 to 15 days
  Plant response rating, Rice: 40

## Cn1nc(C(F)(F)F)c(CS(=O)(=O)c2ccc(Cl)c[n+]2[O-])c1OC(F)F [Compound 7]
Morningglory [1]; [7]
  Morningglory plant response rating: 10
Morningglory [1]; Preemergence, 500 g ai/ha
  Plant response rating, Morningglory: 30
Redroot pigweed; [6]
  Pigweed plant response rating: 60
Redroot pigweed; [7]
  Pigweed plant response rating: 70
Redroot pigweed; [8]
  Pigweed plant response rating: 100
Redroot pigweed; Preemergence, 500 g ai/ha
  Plant response rating, Pigweed: 100
Corn [2]; [7]
  Corn plant response rating: 20
Corn [2]; Preemergence, 500 g ai/ha
  Plant response rating, Corn: 30
Italian ryegrass; [15]
  Ryegrass, Italian plant response rating: 0
Italian ryegrass; [16]
  Ryegrass, Italian plant response rating: 40
Italian ryegrass; Preemergence, 250 g ai/ha
  Plant response rating (0 to 100), Ryegrass, Italian: 50
Italian ryegrass; [11]
  Ryegrass, Italian plant response rating: 50
wheat; [16]
  Wheat plant response rating: 10
wheat; Preemergence, 250 g ai/ha
  Plant response rating (0 to 100), Wheat: 30
wheat; [11]
  Wheat plant response rating: 20
Wild oat; [15]
  Oat, Wild plant response rating: 0
Wild oat; [16]
  Oat, Wild plant response rating: 30
Wild oat; Preemergence, 250 g ai/ha
  Plant response rating (0 to 100), Oat, Wild: 70
Wild oat; [11]
  Oat, Wild plant response rating: 40
bermudagrass; [15]
  Bermudagrass plant response rating: 100
bermudagrass; [16]
  Bermudagrass plant response rating: 100
bermudagrass; Preemergence
  Plant response rating (0 to 100), Bermudagrass: 100
bermudagrass; [11]
  Bermudagrass plant response rating: 100
cocklebur; [15]
  Cocklebur plant response rating: 0
cocklebur; [16]
  Cocklebur plant response rating: 0
cocklebur; Preemergence
  Plant response rating (0 to 100), Cocklebur: 0
cocklebur; [11]
  Cocklebur plant response rating: 0
Corn [3]; [15]
  Corn plant response rating: 0
Corn [3]; [16]
  Corn plant response rating: 0
Corn [3]; Preemergence
  Plant response rating (0 to 100), Corn: 30
Corn [3]; [11]
  Corn plant response rating: 10
Giant foxtail; [15]
  Foxtail, Giant plant response rating: 50
Giant foxtail; [16]
  Foxtail, Giant plant response rating: 50
Giant foxtail; Preemergence
  Plant response rating (0 to 100), Foxtail, Giant: 100
Giant foxtail; [11]
  Foxtail, Giant plant response rating: 80
johnsongrass; [15]
  Johnsongrass plant response rating: 90
johnsongrass; [16]
  Johnsongrass plant response rating: 100
johnsongrass; Preemergence
  Plant response rating (0 to 100), Johnsongrass: 100
johnsongrass; [11]
  Johnsongrass plant response rating: 100
Morningglory [5]; [15]
  Morningglory plant response rating: 0
Morningglory [5]; [16]
  Morningglory plant response rating: 0
Morningglory [5]; Preemergence, 250 g ai/ha
  Plant response rating (0 to 100), Morningglory: 0
Morningglory [5]; [11]
  Morningglory plant response rating: 0
Eastern black nightshade; [15]
  Nightshade plant response rating: 0
Eastern black nightshade; [16]
  Nightshade plant response rating: 50
Eastern black nightshade; Preemergence, 250 g ai/ha
  Plant response rating (0 to 100), Nightshade: 95
Eastern black nightshade; [11]
  Nightshade plant response rating: 50
Yellow nutsedge; [15]
  Nutsedge, Yellow plant response rating: 0
Yellow nutsedge; [16]
  Nutsedge, Yellow plant response rating: 0
Yellow nutsedge; Preemergence, 250 g ai/ha
  Plant response rating (0 to 100), Nutsedge, Yellow: 100
Yellow nutsedge; [11]
  Nutsedge, Yellow plant response rating: 98
[4]; [16]
  Sunflower plant response rating: 0
[4]; Preemergence, 250 g ai/ha
  Plant response rating (0 to 100), Sunflower: 0
[4]; [11]
  Sunflower plant response rating: 0
rice; [12]
  Plant response rating, Rice: 0
rice; [13]
  Plant response rating, Rice: 0
rice; [14]
  Plant response rating, Rice: 15
rice; 250 g ai/ha, scale 0 to 100 (0 no effect, 100 complete control)
  Plant response rating, Rice: 15
